Assay results taken from patent US20230104936A1, “TRPML MODULATORS” (Casma Therapeutics, Inc., priority 2019, published 2023).

Test system: TFEB
Assay: TFEB nuclear translocation assay, HeLa wt cells
Type: cell-based
Conditions: 2 hrs compound treatment, Table 1 does not say HeLa wt or TRPML1 KO
Experimental: For the TFEB nuclear translocation assay, HeLa wt or HeLa TRPML1 KO cells were plated at 2700 cells/well into black-walled, 384-well Cell carrier Ultra tissue culture treated plates in complete media and incubated overnight. The next day, cells are treated for 2 hrs with compounds and incubated at 37° C. Cells were then fixed for 30 minutes at room temperature in 4% final PFA and washed five times with 90 μL PBS. PBS is aspirated from the wells and the cells are blocked with 7.5 μL blocking buffer (1:1 PBS/Odyssey block buffer containing 0.1% triton x-100 and 1% goat serum). After 30-60 minutes of block, 7.5 μL of primary anti-TFEB (rabbit) antibody is added for a final dilution of 1:200 antibody in 15 μL blocking buffer. Plates are incubated overnight at 4° C. The following day, plates are washed again into PBS, 90 μL with 5 washes, all PBS is aspirated from the wells and the cells are incubated for 1 hr in 1:1000 goat-anti rabbit Alexa 488 secondary antibody, also containing 10 μg/mL Hoechst 33342. After the 1 hr room temperature incubation, plates are washed a final time into PBS, sealed with foil and imaged with an automated epifluorescence microscopy (PerkinElmer Operetta CLS). Four different fields were imaged per well using ×20 magnification for DAPI and FITC filter sets. Images were quantified using PerkinElmer Harmony software, briefly: apply flatfield correction (basic/advanced) for input images. Use the Find Nuclei building block with channel set at Hoechst to find the nuclei. Use the Find cytoplasm building block with channel set to Alexa 488 to find the cytoplasm. Use select cell region with Channel set at Alexa 488 and region of interest as Nuclei and define outer border at 0 μm and inner at 45 μm to cover complete nuclei. Use select cell region with Channel set at Alexa 488 and region of interest as ring region and define outer border at −5 μm and inner at 0 μm to define a ring around the nucleus. Use the find calculate intensity parameter to calculate intensity of the nuclear region and the ring region. Define results as Number of nuclei and ratio of A/B where A is Intensity of Nuclei and B is intensity of the ring region.
The compound numbers correspond to the compound numbers above in Tables A or B. Compounds having an activity designated as “++++” provided an AC50 of ≤2.00 μM; compounds having an activity designated as “+++” provided an AC50 of 2.01-8.00 μM; compounds having an activity designated as “++” provided an AC50 of 8.01-9.99 μM; and compounds having an activity designated as “+” provided an AC50 of ≥10.00 μM.

| Compound | AC50 (Homo sapiens, HeLa, 2 h) [nM] | AC50 [nM] |
| --- | --- | --- |
| CC1(C)CC2(CCN(c3ccccc3NS(=O)(=O)C3=Cc4ccccc4OC3)CC2)CO1 [Compound A-675, N-(2-{3,3-dimethyl-2-oxa-8-azaspiro[4.5]decan-8-yl}phenyl)-2H-chromene-3-sulfonamide] | ≤ 2000 |  |
| COC(F)(F)C(F)(F)c1ccc(S(=O)(=O)Nc2ccccc2N2CCN(C(=O)C(C)(C)C)CC2)cc1 [Compound A-569, N-{2-[4-(2,2-dimethylpropanoyl)piperazin-1-yl]phenyl}-4-(1,1,2,2-tetrafluoro-2-methoxyethyl)benzene-1-sulfonamide] | 8010 to 9990 |  |
| CC(c1cccc(F)c1N1CCC(CN2C3CCC2COC3)CC1)S(=O)(=O)c1ccc(C(F)F)cc1 (stereo not shown) [Compound A-906, 8-{[1-(2-{1-[4-(difluoromethyl)benzenesulfonyl]ethyl}-6-fluorophenyl)piperidin-4-yl]methyl}-3-oxa-8-azabicyclo[3.2.1]octane] | ≤ 2000 |  |
| C[C@@H](c1cccc(F)c1N1CCCCC1)S(=O)(=O)c1ccc(S(=N)(=O)N(C)C)cc1 (single isomer, unassigned) [Compound A-930] |  | 2010 to 8000 |
| CC1(C)CC2(CCN(c3ccccc3NS(=O)(=O)c3ccc(Br)cc3)CC2)CO1 [Compound A-691, 4-bromo-N-(2-{3,3-dimethyl-2-oxa-8-azaspiro[4.5]decan-8-yl}phenyl)benzene-1-sulfonamide] | 2010 to 8000 |  |
| O=S1(=O)c2ccccc2CN1c1ccccc1N1CCC(c2ccc(Cl)cc2F)CC1 [Compound A-94, 2-{2-[4-(4-chloro-2-fluorophenyl)piperidin-1-yl]phenyl}-2,3-dihydro-1λ^6,2-benzothiazole-1,1-dione] | 2010 to 8000 |  |
| CN1CC2(CCN(c3ccccc3NS(=O)(=O)c3ccc(S(C)(=O)=O)cc3)CC2)c2cccnc21 [Compound A-348, 4-methanesulfonyl-N-(2-{1′-methyl-1′,2′-dihydrospiro[piperidine-4,3′-pyrrolo[2,3-b]pyridin]-1-yl}phenyl)benzene-1-sulfonamide] | 8010 to 9990 |  |
| O=S(=O)(Nc1cccc(N2CCC(c3ccc(Cl)cc3F)CC2)c1)c1cccc(F)c1 [Compound A-122, N-{3-[4-(4-chloro-2-fluorophenyl)piperidin-1-yl]phenyl}-3-fluorobenzene-1-sulfonamide] | ≥ 10000 |  |
| CC(c1ccncc1N1CCC(CN2C[C@@H](C)O[C@@H](C)C2)CC1)S(=O)(=O)c1ccc(S(=O)(=O)N(C)C)cc1 (stereo partly drawn) [Compound A-850, 4-{1-[3-(4-{[(2R,6S)-2,6-dimethylmorpholin-4-yl]methyl}piperidin-1-yl)pyridin-4-yl]ethanesulfonyl}-N,N-dimethylbenzene-1-sulfonamide] | 2010 to 8000 |  |
| COCC1(C)CCN(c2ccccc2NS(=O)(=O)Cc2ccccc2C#N)CC1 [Compound A-610, 1-(2-cyanophenyl)-N-{2-[4-(methoxymethyl)-4-methylpiperidin-1-yl]phenyl}methanesulfonamide] | 2010 to 8000 |  |
| CN(C)S(=O)(=O)c1ccc(S(=O)(=O)Nc2ccccc2N2CCN(CC(F)F)CC2)cc1 [Compound A-552, N4-{2-[4-(2,2-difluoroethyl)piperazin-1-yl]phenyl}-N1,N1-dimethylbenzene-1,4-disulfonamide] | ≤ 2000 |  |
| CN(C)S(=O)(=O)c1ccc(S(=O)(=O)Nc2ccccc2N2CCN(C3CCCCC3)CC2)cc1 [Compound A-53, N4-[2-(4-cyclohexylpiperazin-1-yl)phenyl]-N1,N1-dimethylbenzene-1,4-disulfonamide] | 2010 to 8000 |  |
| CN(C)S(=O)(=O)c1ccc(S(=O)(=O)Nc2ccccc2N2[C@@H]3CC[C@H]2CN(c2ccc(Cl)cc2F)C3)cc1 [Compound A-25, N4-{2-[(1R,5S)-3-(4-chloro-2-fluorophenyl)-3,8-diazabicyclo[3.2.1]octan-8-yl]phenyl}-N1,N1-dimethylbenzene-1,4-disulfonamide] | ≤ 2000 |  |
| C[C@H]1COC[C@H](C)N1CC1CCN(c2c(F)cccc2NS(=O)(=O)c2ccc(S(=N)(=O)N(C)C)cc2)CC1 (single isomer, unassigned) [Compound A-833] | ≤ 2000 |  |
| COCC1(C)CCN(c2c(NS(=O)(=O)c3ccc(S(=O)(=O)N(C)C)cc3)ccc3ccnn23)CC1 [Compound A-822, N4-{7-[4-(methoxymethyl)-4-methylpiperidin-1-yl]pyrazolo[1,5-a]pyridin-6-yl}-N1,N1-dimethylbenzene-1,4-disulfonamide] | 2010 to 8000 |  |
| O=S(=O)(Nc1cc(Cl)ccc1N1CCCC2(CCCCO2)C1)c1ccc2c(c1)CCC2 (stereo not shown) [Compound A-316, N-(5-chloro-2-{1-oxa-8-azaspiro[5.5]undecan-8-yl}phenyl)-2,3-dihydro-1H-indene-5-sulfonamide] | 2010 to 8000 |  |
| CC(c1cccc(F)c1N1CCC(CN2C[C@@H](C)O[C@@H](C)C2)CC1)S(=O)(=O)c1ccc(S(=O)(=O)N(C)C)cc1 (stereo partly drawn) [Compound A-750, 4-{1-[2-(4-{[(2R,6S)-2,6-dimethylmorpholin-4-yl]methyl}piperidin-1-yl)-3-fluorophenyl]ethanesulfonyl}-N,N-dimethylbenzene-1-sulfonamide] | ≤ 2000 |  |
| COCCOCC1(C)CCN(c2ccccc2NS(=O)(=O)c2ccc(S(=O)(=O)N(C)C)cc2)CC1 [Compound A-518, N4-(2-{4-[(2-methoxyethoxy)methyl]-4-methylpiperidin-1-yl}phenyl)-N1,N1-dimethylbenzene-1,4-disulfonamide] | ≤ 2000 |  |
| Cc1ccc(S(=O)(=O)Nc2ccccc2N2CCC3(CC2)COC(C)(C)C3)cc1F [Compound A-692, N-(2-{3,3-dimethyl-2-oxa-8-azaspiro[4.5]decan-8-yl}phenyl)-3-fluoro-4-methylbenzene-1-sulfonamide] | 2010 to 8000 |  |
| CC1(C)Cc2cc(S(=O)(=O)Nc3cccc(F)c3N3CCC(CN4C5COCC4C5)CC3)ccc2O1 [Compound A-875, N-{3-fluoro-2-[4-({3-oxa-6-azabicyclo[3.1.1]heptan-6-yl}methyl)piperidin-1-yl]phenyl}-2,2-dimethyl-2,3-dihydro-1-benzofuran-5-sulfonamide] | ≥ 10000 |  |
| CN(C)S(=O)(=O)c1ccc(S(=O)(=O)Nc2ccccc2N2CCN(C(=O)C(C)(F)F)CC2)cc1 [Compound A-446, N4-{2-[4-(2,2-difluoropropanoyl)piperazin-1-yl]phenyl}-N1,N1-dimethylbenzene-1,4-disulfonamide] | 2010 to 8000 |  |
| CC(c1cccc(F)c1N1[C@@H]2CCC[C@H]1CC2)S(=O)(=O)c1ccc(S(=N)(=O)N(C)C)cc1 (single isomer, unassigned) [Compound A-989, 4-((1-(2-(8-azabicyclo[3.2.1]octan-8-yl)-3-fluorophenyl)ethyl)sulfonyl)-N,N-dimethylbenzenesulfonimidamide] |  | 8010 to 9990 |
| CC(C)CN1CCN(c2ccccc2C(C)S(=O)(=O)c2ccc(S(=O)(=O)N(C)C)cc2)CC1 (stereo not shown) [Compound A-604, N,N-dimethyl-4-(1-{2-[4-(2-methylpropyl)piperazin-1-yl]phenyl}ethanesulfonyl)benzene-1-sulfonamide] | ≤ 2000 |  |
| COc1ccc(S(=O)(=O)Nc2ccccc2N2CCC(c3ccc(F)cc3F)CC2)cn1 [Compound A-123, N-{2-[4-(2,4-difluorophenyl)piperidin-1-yl]phenyl}-6-methoxypyridine-3-sulfonamide] | 2010 to 8000 |  |
| CN(C)S(=O)(=O)c1ccc(S(=O)(=O)Nc2ccccc2N2CCC(N)(c3ccc(Cl)cc3F)CC2)cc1 [Compound A-150, N4-{2-[4-amino-4-(4-chloro-2-fluorophenyl)piperidin-1-yl]phenyl}-N1,N1-dimethylbenzene-1,4-disulfonamide] | ≤ 2000 |  |
